Tests used:
P-selectin [1] = target: T1, P-selectin (Homo sapiens, UniProt P16109); experiment: HL-60 Cell Binding to P-selectin Rg; assay type: cell-based; settings: HL-60 cells binding to P-selectin Rg coated wells
T1 construct: consists of the human lectin domain, the EGF domain, and two complement repeats of the human selectins; made in house
Protocol: 2. HL-60 Cell Binding to P- and E-Selectin RG
Receptor globulin (Rg) Construction
The chimeric P-and E-selectin receptor globulin (Rg) consists of the human lectin domain, the EGF domain, and two complement repeats of the human selectins fused to the hinge, CH1 and CH2 domains of human IgG1. These proteins were prepared as described by Aruffo, et al., Cell (1991) 67: 35-44; Walz, et al., Science (1990) 250, 1132-1135.
Cell binding assay for Rg
The HL-60 cell line, obtained from the American Type Culture Collection, ATCC No. CCL240, was employed to investigate P-selectin Rg binding. Assays were done in 96-well tissue culture dishes. The wells were first coated with 0.5 ug goat anti-human Fc antiserum overnight, and nonspecific binding sites were blocked by incubation of the wells with 1% nonfat dry milk in phosphate buffered saline (PBS containing 0.9 mM CaCl2 and 0.8 mM MgSO4) for 30 minutes. The Rg was then bound to the anti Fc-coated wells by incubating 50 ng in 50 ul of PBS for two hours. Cells, washed twice and resuspended in PBS to remove traces of medium components, were labeled with 10 uM calcein acetoxy methyl ester for 30 minutes at 3×10^7 cells per ml at room temperature. Serum-containing medium (RPMI with 20% fetal calf serum) was added, and the cells washed, followed by resuspension in PBS and a further spin. The labeled cells, resuspended in PBS, were added to twice washed Rg-containing wells at 200,000 per well. Following a 30 minute incubation with slow shaking, the wells were aspirated and washed three times with PBS to remove unbound cells. To certain wells were added known numbers of cells for determination of a standard curve of fluorescent units per cell. The fluorescence on the plate was quantitated using a fluorescent plate reader. Following subtraction of a blank representing the binding of cells to non-Rg containing wells (<5000 cells), the specific binding to P- or E- selectin was determined.
Inhibitors of cell binding
Test compounds were prepared by dissolution to a final concentration of 20 mg/ml in dimethyl sulfoxide (DMSO), diluted in PBS to 2 mg/ml, and briefly sonicated prior to use. The Rg coated wells were preincubated at room temperature for 15 minutes with the inhibitor, and 200,000 cells were added to yield the final indicated inhibitor concentration in 160 ul of PBS. The data is obtained as percent inhibition of specific binding: [formula] and a plot of dose vs. percent inhibition of Rg binding is generated in which IC50 (μM) is calculated and reported in Table 1.

P-selectin [2] = target: T1, P-selectin; experiment: P-Selectin Adhesion Receptor Binding: cell-free ELISA, inhibition of P-selectin binding to immobilized sulfatides; settings: immobilized sulfatide, pH 8.0
Description: 1. P-Selectin Adhesion Receptor Binding
P-selectin (GMP140, granule membrane protein-140, PADGEM, or CD62) is a calcium-dependent transmembrane protein found in alpha granules of endothelial cells and platelets. It is an inducible selectin produced on activated endothelium and platelets which recognize alpha(2-3)sialylated and alpha(1-3)fucosylated lactosaminoglycans which include the sequence, Lewis x (Zhou et al., J. Cell. Biol., (1991) 115 (2): 557-564) and sulfatides (3-sulfated galactosyl ceramides, Aruffo, et al., Cell (1991) 67: 35-44). P-selectin may be responsible for the initial adhesion events between endothelium and neutrophils as evidenced by leukocyte rolling induced by P-selectin in flow cells (Lawrence, M., and T. Springer, Cell (1991) 65: 859-873).
Based on the availability of soluble forms of P-selectin prepared as described by Aruffo, A., et al., Cell, 67, 35-44 (1991), a binding ELISA based assay modified from Foxall, et al., J., Cell Biol., 117, 895-902 (1992) was developed to measure inhibitors of P-selectin binding to immobilized sulfatides. Such inhibitors were tested in the assay described below.
0.1 ml of sulfatide (SIGMA) or lysosulfatide (SIGMA) each at 1 μg/ml in MeOH were added to the wells of a 96-well ELISA plate (ProBind, Falcon) and allowed to dry overnight at room temperature. The next day the antigen coated plates were blocked for 1.5 hours at room temperature with 5% BSA (ICN) in buffer containing 20mM Hepes and 0.15 M NaCl, pH 8.0. Wild type P-selectin and mutants thereof were first mixed with HRP-conjugated goat anti-human IgG (Fisher Scientific), serially diluted and then incubated for 30 minutes at 37° C. in buffer containing 20 mM Hepes, 0.15 M NaCl, 1% BSA and 0.8 mM CaCl2, pH 8.0 prior to addition to the BSA blocked plates. Following the 30 minute preincubation, the fusion protein-HRP conjugate immunocomplexes were incubated on the blocked antigen coated plates for 45 minutes at 37° C. in the presence or absence of the test compounds and then washed to remove any unbound proteins. Bound complexes were detected by addition of substrate buffer (95 mM NaOAc.3H2 O, 5 mM citric acid monohydrate, 1.4 mM urea/H2O2) containing 3, 3', 5, 5' Tetramethylbenzidine (SIGMA). Reactions were stopped by the addition of 3N sulfuric acid and the absorbance read on an ELISA reader at dual wavelengths 450 and 630 nm. The efficacy of these compounds was compared to that of sulfatide (positive control) or to lysosulfatide (negative control). The data is obtained as percent inhibition of specific binding [formula] and a plot of dose vs. percent inhibition of Rg binding is generated in which IC50 (μM) is calculated and reported as cell free data in Table 1.

[3] = tested on: Reverse Passive Arthus Reaction in Rats; experiment: Reverse Passive Arthus Reaction in Rats, myeloperoxidase (MPO); assay type: in vivo; settings: rat, IV, % inhibition at 3 mg single dose, 4 hours
Description: (§1) 3. Reverse Passive Arthus Reaction in Rats
(§2) The reverse passive Arthus reaction in rats is a modification of the method by Mulligan et al., as described in J. Clin. Invest., (1991 ) 88:1396-1406. This is an experimental model in which the interaction of antigen-antibody complexes and complement leads to a severe vasculitis that is associated with edema, induration, erythema and hemorrhage. The interaction between the antigen-antibody complexes and complement leads to a localized influx of neutrophils. These neutrophils release a variety of mediators that are associated with tissue damage and vascular permeability. The localized inflammatory reaction is measured using different techniques i.e., vascular permeability and neutrophil influx which is evaluated both biochemically and microscopically.
(§3) Male Sprague Dawley specific pathogen-free rats with jugular vein cannulae (280-320 g, Hill Top Labs, Pa.) are used in these studies. Animals are acclimated for at least 1 day and individually housed in stainless steel cages. The dorsal region of the rats is closely clipped 2 days prior to the experiments and divided into 4 sites on each side of the midline. Prior to all injections the rats are sedated with 0.4 ml per 300 gm rat of ketamine/rompun [1000 mg (10 ml) of ketamine HCL is mixed with 40 mg (2.0 ml) Rompun] administered IP and or inhalation anesthesia with metafane (methoxyflurane).
(§4) Bovin Serum Albumin (BSA) and rabbit polyclonal IgG rich in anti-BSA are purchased from Sigma Chemical Co. (St. Louis, Mo.). Radiolabelled ^125 I-BSA (spAct 1-5 μCi/μg) is purchased from Dupont NEN (Boston, Mass.).
(§5) Each rat is administered intradermal (ID) injection of (0.4 mg, 0.6 mg and 0.8 mg) anti-BSA in a volume of 100 μl per injection in normal saline. The ID injections are randomized near the mid dorsal region on both sides of the back bone. Immediately after the ID injections of the anti-BSA, the rats are administered intravenous (IV) injections of BSA (10 mg in 1.0 ml) in normal saline containing ^125 I labeled BSA (1 μCi/ml BSA or 5.0 μCi/kg body wt) for quantification of dermal vascular injury. Anti-inflammatory agents such as inhibitors of adhesion molecules of the present invention are administered IV at a single dose of 3 mg immediately after BSA. Four (4) hours after the IV injection of BSA, the rats are anesthetized with metafane and 2 to 3 ml of blood is withdrawn via the cannula into an anticoagulant containing (EDTA or Heparin) tube and plasma separated and saved for neutrophil and albumin quantitation. The rats are killed and the skin surrounding the injection site (15 mm diameter) is punched out and weighed. The skin samples and a fixed volume of plasma (0.1 to 1.0 ml) is analyzed in a gamma-counter for ^125 I content. Skin samples from the contralateral side are processed and analyzed for myeloperoxidase activity (MPO) as a measure of neutrophil accumulation. As needed, samples are also processed for histological evaluation of the reacted sites.
MPO is located in the azurephil granules of polymorphonuclear leukocytes (PMN). Because of its abundance in these cells (5% dry weight), this enzyme is used as a marker for tissue neutrophil content. For tissue MPO content, the method of Bradley, et al., was used as described in J. Invest. […] Change in absorbance at 450 nm was measured at room temperature using a Vmax kinetic plate reader (Molecular Devices, Pale Alto, Calif., USA). Percent inhibition of the test compound at 3 mg dose was determined as follows: [formula] […]

[4] = tested on: Reverse Passive Arthus Reaction in Rats; experiment: Reverse Passive Arthus Reaction in Rats, vascular permeability (VP); assay type: in vivo; settings: rat, IV, % inhibition at 3 mg single dose, 4 hours
Description: as §1, §2, §3, §4, §5
Vascular Permeability (VP)
The calculation of the plasma protein exudation into skin is made by determining the radioactivity in the tissue and relating this to the level of radioactive albumin in the blood at the time of sacrifice. […] [formula]
Percent inhibition of the test compound at 3 mg was determined as follows: [formula] Myeloperoxidase (MPO)

P-selectin [5] = settings: Skinner et al.; cited from earlier work
P-selectin [6] = settings: Larsen et al.; Erbe et al.; Aruffo et al.; cited from earlier work

T1 sequence (P16109 with tags, fused parts or gaps limits assumed): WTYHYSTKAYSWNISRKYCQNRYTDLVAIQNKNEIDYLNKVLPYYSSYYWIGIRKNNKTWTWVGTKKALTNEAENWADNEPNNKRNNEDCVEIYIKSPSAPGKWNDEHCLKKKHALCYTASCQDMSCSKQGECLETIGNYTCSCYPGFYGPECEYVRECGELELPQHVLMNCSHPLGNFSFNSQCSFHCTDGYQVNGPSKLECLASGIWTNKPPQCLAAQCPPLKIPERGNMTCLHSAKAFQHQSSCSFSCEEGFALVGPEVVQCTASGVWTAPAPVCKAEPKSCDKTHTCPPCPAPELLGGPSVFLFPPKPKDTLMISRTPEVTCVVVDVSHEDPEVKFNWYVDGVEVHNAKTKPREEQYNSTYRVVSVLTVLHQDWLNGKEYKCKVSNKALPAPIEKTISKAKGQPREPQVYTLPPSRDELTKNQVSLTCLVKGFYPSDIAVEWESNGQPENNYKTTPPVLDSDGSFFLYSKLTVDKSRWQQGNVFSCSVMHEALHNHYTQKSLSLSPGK

Compound	IC50 (P-selectin [2])	RPA MPO % Inhib. [3]	RPA VP % Inhib. [4]	inhibition of P-selectin mediated adhesion (in words) (P-selectin [5])	also measured
CCCCCCCCCCCCC/C=C/[C@@H](OC(=O)c1ccccc1)[C@H](CO[C@@H]1O[C@@H]2COC(c3ccccc3)O[C@@H]2[C@H](OS(=O)(=O)O)[C@H]1OS(=O)(=O)O)NC(=O)CCCCCCCCCCCCCCC (stereo partly drawn) [Example 10, (2S,3R,4E)-3-Benzoyloxy-2-hexadecanoylamino-1-[2,3-di-O-(sodiumoxysulfonyl)-4,6-O-benzylidene-β-D-galactopyranosyloxy)-4-octadecene]		56%	0%		
heparin				inhibit P-selectin mediated adhesion	
fucoidan				inhibit P-selectin mediated adhesion	
sialyl-Le^x					P-selectin binding (in words) (P-selectin [6]): has been shown to bind
dextran sulfate				inhibit P-selectin mediated adhesion	

Second part, led by results:

IC50 (P-selectin [2])	Compound	RPA MPO % Inhib. [3]	RPA VP % Inhib. [4]	inhibition of P-selectin mediated adhesion (in words) (P-selectin [5])	also measured
1300 nM	CCCCCCCCCCCCC/C=C/[C@@H](OC(=O)c1ccccc1)[C@H](CO[C@@H]1O[C@H](COS(=O)(=O)O)[C@H](OC(C)=O)[C@H](OS(=O)(=O)O)[C@H]1OC(=O)c1ccccc1)NC(=O)CCCCCCCCCCCCCCC [Example 8, (2S,3R,4E)-3-Benzoyloxy-2-hexadecanoylamino-1-[2-O-benzoyl-4-O-acetyl-3,6-di-O-(sodiumoxysulfonyl)-β-D-galactopyranosyloxy]-4-octadecene]				IC50 (P-selectin [1]): 15000 nM
100 nM	CCCCCCCCCCCCC/C=C/[C@@H](OC(=O)c1ccccc1)[C@H](CO[C@@H]1O[C@H](COS(=O)(=O)O)[C@H](OS(=O)(=O)O)[C@H](OC(=O)c2ccccc2)[C@H]1OC(=O)c1ccccc1)NC(=O)CCCCCCCCCCCCCCC [Example 1, (2S,3R,4E)-3-Benzoyloxy-2-hexadecanoylamino-1-[2,3-di-O-benzoyl-4,6-di-O-(sodiumoxysulfonyl)-β-D-galactopyranosyloxy]-4-octadecene]	24%	42%		
200 nM	CCCCCCCCCCCCC/C=C/[C@@H](OC(=O)c1ccccc1)[C@H](CO[C@@H]1O[C@H](COS(=O)(=O)O)[C@@H](OS(=O)(=O)O)[C@H](OC(=O)c2ccccc2)[C@H]1OC(=O)c1ccccc1)NC(=O)CCCCCCCCCCCCCCC [Example 3, (2S,3R,4E)-2-Hexadecanoylamino-3-benzoyloxy-1-(2,3-di-O-benzoyl-4,6-di-O-(sodiumoxysulfonyl)-β-D-glucopyranosyloxy)-4-octadecene]	14%	34%		
600 to 4000 nM	CCCCCCCCCCCCCCCCCCCCCCCC(=O)N[C@@H](CO[C@@H]1O[C@H](COS(=O)(=O)O)[C@H](OS(=O)(=O)O)[C@H](OC(=O)c2ccccc2)[C@H]1OC(=O)c1ccccc1)[C@@H](CCCCCCCCCCCCCCC)OC(=O)c1ccccc1 [Example 19, (2S,3R)-3-Benzoyloxy-1-[2,3-di-O-benzoyl-4,6-di-O-(sodiumoxysulfonyl)-β-D-galactopyranosyl-oxy]-2-tetracosanoylaminooctadecane]				IC50 (P-selectin [1]): 45000 nM
2700 nM	CCCCCC/C=C/[C@@H](OC(=O)c1ccccc1)[C@H](CO[C@@H]1O[C@H](COS(=O)(=O)O)[C@H](O)[C@H](O)[C@H]1OS(=O)(=O)O)NC(=O)CCCCCCCCCCCCCCC [Example 25, (2S,3R,4E)-3-Benzoyloxy-2-hexadecanoylamino-1-[2,6-di-O-(sodiumoxysulfonyl)-β-D-galactopyranosyloxy]-4-undecene]				
